# Structures can show the parent of a compound that is named as a salt.
# System: Escherichia coli ATCC 25922
# Experiment: 50% growth inhibitory concentration (IC50) determination, Iso-Sensitest broth dilution
# Format: cell-based
# Settings: Escherichia coli, ATCC25922, 16 h, strain Escherichia coli ATCC 25922; 10-point broth dilution, optical density at 600 nm over 16 h; read-out: Escherichia coli growth inhibition IC50
# Procedure, shortened: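 10-point twofold Iso-Sensitest broth dilution (e.g. 50 to 0.097 μM final) with DMSO stocks, incubated at 35±2° C. Growth followed by OD 600 nm every 20 min over 16 h; IC50 derived from growth inhibition during logarithmic phase.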
row,SMILES,IC50 [µM]
1,"CNC(=O)COc1nc(C)c2c(c1C)CC(CNCCC1CN(c3ccc4c(n3)NC(=O)CO4)C(=O)O1)C2 (stereo not shown) [Example 110, 2-[[1,4-dimethyl-6-[[2-[2-oxo-3-(3-oxo-4H-pyrido[3,2-b][1,4]oxazin-6-yl)-1,3-oxazolidin-5-yl]ethylamino]methyl]-6,7-dihydro-5H-cyclopenta[c]pyridin-3-yl]oxy]-N-methylacetamide]",0.311
2,"CS(=O)(=O)N1CC(Oc2cc(F)c3c(c2)CC(CNCCC2CN(c4cnc5c(n4)NC(=O)CO5)C(=O)O2)C3)C1 (stereo not shown) [Example 355, 6-[5-[2-[[4-fluoro-6-(1-methylsalfonylazetidin-3-yl)oxy-2,3-dihydro-1H-inden-2-yl]methylamino]ethyl]-2-oxo-1,3-oxazolidin-3-yl]-4H-pyrazino[2,3-b][1,4]oxazin-3-one hydrochloride]",0.162
3,"CNC(=O)COc1cc(Cl)c2c(c1)C(N)C(CNCCC1CN(c3cnc4c(n3)NC(=O)CO4)C(=O)O1)C2 (racemic) [Example 399, 2-[[rac-2,3-trans-3-Amino-7-chloro-2-[[2-[2-oxo-3-(3-oxo-4H-pyrazino[2,3-b][1,4]oxazin-6-yl)-1,3-oxazolidin-5-yl]ethylamino]methyl]-2,3-dihydro-1H-inden-5-yl]oxy]-N-methylacetamide; formic acid]",1.12
4,"N#Cc1c(OCC2CCN2)ccc2c1CC(CNCCC1CN(c3ccc4c(n3)NC(=O)CO4)C(=O)O1)C2 (stereo not shown) [Example 137, 5-(azetidin-2-ylmethoxy)-2-[[2-[2-oxo-3-(3-oxo-4H-pyrido[3,2-b][1,4]oxazin-6-yl)-1,3-oxazolidin-5-yl]ethylamino]methyl]-2,3-dihydro-1H-indene-4-carbonitrile; formic acid]",0.801
5,"N#Cc1cccc2c1CC(CNCCC1(CN)CN(c3ccc4c(n3)NC(=O)CO4)C(=O)O1)C2 (stereo not shown) [Example 243, 2-[[2-[5-(aminomethyl)-2-oxo-3-(3-oxo-4H-pyrido[3,2-b][1,4]oxazin-6-yl)-1,3-oxazolidin-5-yl]ethylamino]methyl]-2,3-dihydro-1H-indene-4-carbonitrile]",0.199
6,"Cc1c(OC[C@H](N)CO)nc(C#N)c2c1CC(CNCCC1CN(c3ccc4c(n3)NC(=O)CO4)C(=O)O1)C2 (stereo partly drawn) [Example 235, 3-[(2R)-2-Amino-3-hydroxypropoxy]-4-methyl-6-[[2-[2-oxo-3-(3-oxo-4H-pyrido[3,2-b][1,4]oxazin-6-yl)-1,3-oxazolidin-5-yl]ethylamino]methyl]-6,7-dihydro-5H-cyclopenta[c]pyridine-1-carbonitrile]",0.196
7,"NC1(COc2cc(F)c3c(c2)CC(CNCCC2CN(c4ccc5c(n4)NC(=O)CO5)C(=O)O2)C3)COC1 (stereo not shown) [Example 162, 6-[5-[2-[[6-[(3-aminooxetan-3-yl)methoxy]-4-fluoro-2,3-dihydro-1H-inden-2-yl]methylamino]ethyl]-2-oxo-1,3-oxazolidin-3-yl]-4H-pyrido[3,2-b][1,4]oxazin-3-one; formic acid]",0.195
8,"CNC(=O)COc1ncc2c(c1C)CC(CNCCC1CN(c3ccc4c(n3)NC(=O)CO4)C(=O)O1)C2 (stereo not shown) [Example 223, N-methyl-2-((4-methyl-6-(((2-(2-oxo-3-(3-oxo-3,4-dihydro-2H-pyrido[3,2-b][1,4]oxazin-6-yl)oxazolidin-5-yl)ethyl)amino)methyl)-6,7-dihydro-5H-cyclopenta[c]pyridin-3-yl)oxy)acetamide]",0.389
9,"CNC(=O)COc1cc(C)c2c(c1C)CC(CNCCC1CN(c3cnc4c(n3)NC(=O)CO4)C(=O)O1)C2 (stereo not shown) [Example 113, 2-[[4,7-dimethyl-2-[[2-[2-oxo-3-(3-oxo-4H-pyrazino[2,3-b][1,4]oxazin-6-yl)-1,3-oxazolidin-5-yl]ethylamino]methyl]-2,3-dihydro-1H-inden-5-yl]oxy]-N-methylacetamide]",0.323
10,"COc1cnc(Cl)c2c1CC(CNCCC1CN(c3cnc4c(n3)NC(=O)CO4)C(=O)O1)C2 (stereo not shown) [Example 58, 6-[5-[2-[(1-chloro-4-methoxy-6,7-dihydro-5H-cyclopenta[c]pyridin-6-yl)methylamino]ethyl]-2-oxo-1,3-oxazolidin-3-yl]-4H-pyrazino[2,3-b][1,4]oxazin-3-one; formic acid]",0.19
11,"Cn1ccc(COc2cc(C#N)c3c(c2)CC(CNCCC2CN(c4cnc5c(n4)NC(=O)CO5)C(=O)O2)C3)n1 (stereo not shown) [Example 388, 6-[(1-methylpyrazol-3-yl)methoxy]-2-[[2-[2-oxo-3-(3-oxo-4H-pyrazino[2,3-b][1,4]oxazin-6-yl)-1,3-oxazolidin-5-yl]ethylamino]methyl]-2,3-dihydro-1H-indene-4-carbonitrile]",0.192

# These reach a lower IC50. Values come first.
row,IC50 [µM],SMILES
1,< 0.0977,"Cc1ncc2c(c1F)CC(CNCC[C@H]1CN(c3cnc4c(n3)NC(=O)CO4)C(=O)O1)C2 (stereo partly drawn) [Example 338, 6-[(5S)-5-[2-[(4-fluoro-3-methyl-6,7-dihydro-5H-cyclopenta[c]pyridin-6-yl)methylamino]ethyl]-2-oxo-1,3-oxazolidin-3-yl]-4H-pyrazino[2,3-b][1,4]oxazin-3-one]"
2,< 0.0977,"C[C@@H](N)COc1cc(F)c2c(c1)CC(CN1CCC3(CC1)CN(c1cnc4c(n1)NC(=O)CO4)C(=O)O3)C2 (stereo partly drawn) [Example 357, 6-[8-[[6-[(2R)-2-aminopropoxy]-4-fluoro-2,3-dihydro-1H-inden-2-yl]methyl]-2-oxo-1-oxa-3,8-diazaspiro[4.5]decan-3-yl]-4H-pyrazino[2,3-b][1,4]oxazin-3-one; formic acid]"
3,< 0.0977,"CNC(=O)COc1cc(F)c2c(c1)CC(CN1CCC3(CC1)CN(c1cnc4c(n1)NC(=O)CO4)C(=O)O3)C2 (stereo not shown) [Example 309, 2-[[7-fluoro-2-[[2-oxo-3-(3-oxo-4H-pyrazino[2,3-b][1,4]oxazin-6-yl)-1-oxa-3,8-diazaspiro[4.5]decan-8-yl]methyl]-2,3-dihydro-1H-inden-5-yl]oxy]-N-methylacetamide]"
4,< 0.0977,"CN1CCCC1COc1ccc2c(c1C#N)CC(CNCCC1CN(c3ccc4c(n3)NC(=O)CO4)C(=O)O1)C2 (stereo not shown) [Example 52, 5-[(1-methylpyrrolidin-2-yl)methoxy]-2-[[2-[2-oxo-3-(3-oxo-4H-pyrido[3,2-b][1,4]oxazin-6-yl)-1,3-oxazolidin-5-yl]ethylamino]methyl]-2,3-dihydro-1H-indene-4-carbonitrile; formic acid]"
5,< 0.0977,"N[C@@H]1c2cccc(Cl)c2C[C@H]1CN1CCC2(CC1)CN(c1cnc3c(n1)NC(=O)CO3)C(=O)O2 (racemic) [Example 259, 6-[2-Oxo-8-[[rac-1,2-trans-1-amino-4-chloro-2,3-dihydro-1H-inden-2-yl]methyl]-1-oxa-3,8-diazaspiro[4.5]decan-3-yl]-4H-pyrazino[2,3-b][1,4]oxazin-3-one; formic acid]"
6,< 0.0977,"O=C1COc2ccc(N3CC(CNCCC4Cc5cccc(Cl)c5C4)OC3=O)nc2N1 (stereo not shown) [Example 26, 6-[5-[ [2-(4-chloro-2,3-dihydro-1H-inden-2-yl)ethylamino]methyl]-2-oxo-1,3-oxazolidin-3-yl]-4H-pyrido[3,2-b][1,4]oxazin-3-one; formic acid]"
7,< 0.0977,"Cc1ncc(Cl)c2c1CC(CNCCC1CN(c3ccc4c(n3)NC(=O)CO4)C(=O)O1)C2N (racemic) [Example 262, 6-[5-[2-[(rac-5,6-trans-5-Amino-4-chloro-1-methyl-6,7-dihydro-5H-cyclopenta[c]pyridin-6-yl)methylamino]ethyl]-2-oxo-1,3-oxazolidin-3-yl]-4H-pyrido[3,2-b][1,4]oxazin-3-one; formic acid]"
8,< 0.0977,"C[C@H](N)COc1cc(F)c2c(c1)CC(CN1CCC3(CC1)CN(c1cnc4c(n1)NC(=O)CO4)C(=O)O3)C2 (stereo partly drawn) [Example 356, 6-[8-[[6-[(2S)-2-aminopropoxy]-4-fluoro-2,3-dihydro-1H-inden-2-yl]methyl]-2-oxo-1-oxa-3,8-diazaspiro[4.5]decan-3-yl]-4H-pyrazino[2,3-b][1,4]oxazin-3-one; formic acid]"
9,< 0.0977,"NC(=O)COc1cc(F)c2c(c1)CC(CNCCc1cn(-c3cnc4c(n3)NC(=O)CO4)c(=O)o1)C2 (stereo not shown) [Example 306, 2-[[7-fluoro-2-[[2-[2-oxo-3-(3-oxo-4H-pyrazino[2,3-b][1,4]oxazin-6-yl)-1,3-oxazol-5-yl]ethylamino]methyl]-2,3-dihydro-1H-inden-5-yl]oxy]acetamide; formic acid]"
10,< 0.0977,"N#Cc1cccc2c1CC(CNCCC1CN(c3ccc4c(n3)NC(=O)CS4)C(=O)O1)C2N (racemic) [Example 247, rac-1,2-trans-1-amino-2-[[2-[2-oxo-3-(3-oxo-4H-pyrido[3,2-b][1,4]thiazin-6-yl)-1,3-oxazolidin-5-yl]ethylamino]methyl]-2,3-dihydro-1H-indene-4-carbonitrile]"
11,< 0.0977,"Cc1c(OCC2(N)CC2)nc(-c2nccs2)c2c1CC(CNCCC1CN(c3ccc4c(n3)NC(=O)CO4)C(=O)O1)C2 (stereo not shown) [Example 218, 6-[5-[2-[[3-[(1-aminocyclopropyl)methoxy]-4-methyl-1-(1,3-thiazol-2-yl)-6,7-dihydro-5H-cyclopenta[c]pyridin-6-yl]methylamino]ethyl]-2-oxo-1,3-oxazolidin-3-yl]-4H-pyrido[3,2-b][1,4]oxazin-3-one]"
12,0.144,"CC(O)COc1cc(F)c2c(c1)CC(CNCCC1CN(c3cnc4c(n3)NC(=O)CO4)C(=O)O1)C2 (stereo not shown) [Example 351, 6-[5-[2-[[4-Fluoro-6-(2-hydroxypropoxy)-2,3-dihydro-1H-inden-2-yl]methylamino]ethyl]-2-oxo-1,3-oxazolidin-3-yl]-4H-pyrazino[2,3-b][1,4]oxazin-3-one; hydrochloride]"
13,< 0.0977,"N#Cc1cccc2c1CC(CNCCC1CN(c3ncc4c(n3)NC(=O)CO4)C(=O)O1)C2 (stereo not shown) [Example 289, 2-[[2-[2-oxo-3-(7-oxo-8H-pyrimido [5,4-b] [1,4]oxazin-2-yl)-1,3-oxazolidin-5-yl]ethylamino]methyl]-2,3-dihydro-1H-indene-4-carbonitrile]"
14,0.144,"N#CCOc1cc(F)c2c(c1)CC(CNCCC1CN(c3cnc4c(n3)NC(=O)CO4)C(=O)O1)C2 (stereo not shown) [Example 366, 2-[[7-fluoro-2-[[2-[2-oxo-3-(3-oxo-4H-pyrazino[2,3-b][1,4]oxazin-6-yl)-1,3-oxazolidin-5-yl]ethylamino]methyl]-2,3-dihydro-1H-inden-5-yl]oxy]acetonitrile; formic acid]"

# — US20230167127A1, “COMPOUNDS AND THEIR USE IN THE TREATMENT OF BACTERIAL INFECTION” (Hoffmann-La Roche Inc., priority 2020, published 2023)
